Measured values: US20220378811A1, “VENETOCLAX DOSING REGIMENS FOR USE IN TREATING MYELODYSPLASTIC SYNDROMES IN COMBINATION WITH AZACITIDINE” (ABBVIE INC., priority 2021, published 2022)

Assay: Phase 1b study in previously untreated higher-risk MDS: dose administration, dose reductions and cycle delays in SE1 and SE2
Format: in vivo, human
Conditions: for # of reductions in Venetoclax duration: reductions due to hematologic toxicity
Description: Responses were evaluated using IWG 2006 criteria.
Subjects who initiate a cycle of treatment with neutropenia, absolute neutrophil count <1.5×10^9/L, or thrombocytopenia, platelets <75×10^9/L, may be especially sensitive to cytopenias due to abnormal hematopoiesis resulting from the underlying […]. […] However, subjects who initiate a cycle of treatment with absolute neutrophil count 1.5×10^9/L and platelets 75×10^9/L and have a previous response of complete remission, partial remission, or marrow complete remission may require dose reduction, if subsequent absolute neutrophil count nadir <0.500×10^9/L, or platelets nadir <50×10^9/L, if baseline was >100×10^9/L, or platelets <50% if baseline was ≤100×10^9/L.

CC1(C)CCC(CN2CCN(c3ccc(C(=O)NS(=O)(=O)c4ccc(NCC5CCOCC5)c([N+](=O)[O-])c4)c(Oc4cnc5[nH]ccc5c4)c3)CC2)=C(c2ccc(Cl)cc2)C1 [Venetoclax, 4-(4-{[2-(4-chlorophenyl)-4,4-dimethylcyclohex-1-en-1-yl]methyl}piperazin-1-yl)-N-({3nitro-4-[(tetrahydro-2H-pyran-4-ylmethyl)amino]phenyl}sulfonyl)-2-(1H-pyrrolo[2,3-b]pyridin5-yloxy)benzamide]
Venetoclax dose delay by end of Cycle 2, Median # days (SE1, n = 22): 7.5 days
Venetoclax dose delay by end of Cycle 3, Median # days (SE1, n = 22): 14 days
Venetoclax dose delay by end of Cycle 4, Median # days (SE1, n = 22): 17 days
Venetoclax dose delay by end of Cycle 5, Median # days (SE1, n = 22): 14 days
Venetoclax dose delay by end of Cycle 6, Median # days (SE1, n = 22): 7 days
# of reductions in Venetoclax duration (SE1, n = 22): 3 (14)
Venetoclax dose delay by end of Cycle 2, Median # days (SE2, n = 21): 8 days
Venetoclax dose delay by end of Cycle 3, Median # days (SE2, n = 21): 8.5 days
Venetoclax dose delay by end of Cycle 4, Median # days (SE2, n = 21): 9 days
Venetoclax dose delay by end of Cycle 5, Median # days (SE2, n = 21): 14 days
Venetoclax dose delay by end of Cycle 6, Median # days (SE2, n = 21): 14 days
# of reductions in Venetoclax duration (SE2, n = 21): 0
